Experimental data published in patent US20240285728A1, “TARGETED PROTEIN DELIVERY TO MAMMALIAN EMBRYOS AND THERAPEUTIC APPLICATIONS USING EXOSOMES” (University of Maryland, Baltimore, priority 2021, published 2024).

Tests used:
neuroepithelial cells = conditions: mouse, in vivo
Description: (§3) Mouse models of diabetic embryopathy. The mouse model of diabetic embryopathy was described previously [4,22,36,45,46]. Briefly, ten-week old female mice were intravenously injected daily with 75 mg/kg STZ over two days to induce diabetes. Diabetes was defined as 12 hours fasting blood glucose level of ≥250 mg/dL. Male and female mice were paired at 3:00 PM, and day 0.5 (E0.5) of pregnancy was established by the presence of the vaginal plug at 8:00 AM the next morning. Female mice injected with vehicle served as the nondiabetic controls. On E7.5, E8.5, E9.5 or E10.5 mice were euthanized and conceptuses were dissected out of the uteri for biochemical and molecular analysis.
(§4) Immunoblotting. Immunoblotting was performed as described by Yang at el [4]. Lysis buffer (Cell Signaling Technology, Danvers, MA) containing a protease inhibitor cocktail (Sigma, St Louis, MO) was used to extract protein. Equal amounts of protein and Precision Plus Protein Standards (Bio-Rad, Hercules, CA) were resolved by SDS-PAGE and transferred onto Immunobilon-P membranes (Millipore, Billerica, MA). […] Signals were detected using the SuperSignal West Femto Maximum Sensitivity Substrate kit (Thermo Fisher Scientific, Waltham, MA). […]

[1] = tested on: exosome production in the developing embryos; experiment: Exosome profile, exosome numbers and CD63 expression in E8.5 embryos after GW4869 injections; format: in vivo, mouse
Description: Mouse models of diabetic embryopathy. […] NTDs were examined at E10.5.
Exosome extraction and labelling. Cells and debris were removed from cell culture media via centrifugation at 2000×g for 30 minutes at 4° C. Supernatants containing the cell-free culture media were transferred to a new tube without disturbing the pellet. Total Exosome Isolation (#4478359, Invitrogen, Carlsbad, CA) at 0.5 volume of the collected supernatants was added to each tube. The cell culture media/reagent mixture was mixed well via vortex and pipetting up and down until it became a homogenous solution, and then was incubated at 4° C. overnight. After incubation, the samples were centrifuged at 10,000×g for 1 hour at 4° C. and the supernatants were discarded. Exosomes were contained in the pellet at the bottom of the tube (not visible in most cases). The pellet was re-suspended in 1 ml of 1×PBS, and NanoSight (#NS300, Malvern Panalytical) was used to measure the exosomes. The presence of exosomes was confirmed by Western blot using the exosomal marker CD63 (Santa Cruz Biotechnology, Dallas, TX). Exosomes were suspended in 1 ml Diluent C (Sigma, St Louis, MO) and labeled by incubating with PKH67 fluorescent dye (Sigma, St Louis, MO) for 5 min in the dark at room temperature. […]

[2] = tested on: (p)-PERK, (p)-IRE1α, (p)-eIF2α and CHOP; conditions: mouse, in vivo
Description: as §3, §4

[3] = tested on: embryos of nondiabetic dams; conditions: mouse, in vivo
Description: Mouse models of diabetic embryopathy. […] Briefly, ten-week old female mice were intravenously injected daily with 75 mg/kg STZ over two days to induce diabetes. Diabetes was defined as 12 hours fasting blood glucose level of ≥250 mg/dL. Male and female mice were paired at 3:00 PM, and day 0.5 (E0.5) of pregnancy was established by the presence of the vaginal plug at 8:00 AM the next morning. Female mice injected with vehicle served as the nondiabetic controls. On E7.5, E8.5, E9.5 or E10.5 mice were euthanized and conceptuses were dissected out of the uteri for biochemical and molecular analysis. The exosome inhibitor GW4869 (Sigma, St, Louis, MO) was injected daily to nondiabetic pregnant dams from E7.0 to E8.0. NTDs were examined at E10.5.
Statistical analyses. Data were presented as means±standard errors (SE). In animal studies, experiments were repeated at least three times, and embryonic samples from each replicate were from different dams. Statistical differences were determined by one-way analysis of variance (ANOVA) using the SigmaPlot 12.5 (SigmaStat, San Jose, CA). In one-way ANOVA analysis, Tukey test was used to estimate the significance of the results (P<0.05). The Chi square test and Fisher Exact test were used to estimate the significance of NTD incidence.

[4] = mouse, in vivo
Description: Briefly, ten-week old female mice were intravenously injected daily with 75 mg/kg STZ over two days to induce diabetes. Diabetes was defined as 12 hours fasting blood glucose level of ≥250 mg/dL. Male and female mice were paired at 3:00 PM, and day 0.5 (E0.5) of pregnancy was established by the presence of the vaginal plug at 8:00 AM the next morning. Female mice injected with vehicle served as the nondiabetic controls. On E7.5, E8.5, E9.5 or E10.5 mice were euthanized and conceptuses were dissected out of the uteri for biochemical and molecular analysis. The exosome inhibitor GW4869 (Sigma, St, Louis, MO) was injected daily to nondiabetic pregnant dams from E7.0 to E8.0. NTDs were examined at E10.5.

[5] = tested on: Fgf2 promoter in yolk sac endoderm PYS2 cell line; experiment: Fgf2 promoter luciferase reporter activity under high glucose; format: cell-based; conditions: suppressed by high glucose (25 mM glucose), PYS2 cells
Description: (§1) Cell culture and transfection. The C17.2 mouse neural stem cell line from the European Collection of Cell Culture (Salisbury, UK) and the yolk sac endoderm PYS2 cell line (ATCC® CRL2745™) were maintained in DMEM (5 mM glucose) supplemented with 10% FBS, 100 U/ml penicillin, and […] streptomycin at 37° C. in a humidified atmosphere of 5% CO2. Mouse recombinant FGF2 (#3139-FB; R&D Systems, Minneapolis, MN) was used at a final concentration of 10 ng/ml. Lipofectamine 2000 (Invitrogen, Carlsbad, CA) was used according to the manufacturer's protocol for transfection of siFGF2 and control siRNA (Invitrogen, Carlsbad, CA) into the cells. After seeding for 12 h, cells were transfected with recombinant FGF2 and cultured in 1% FBS for 8 h, after which cells were cultured in 10% FBS and collected after 48 h for analysis.

[6] = tested on: isolated E8 Flk-1^+ progenitors; experiment: Survivin protein in exosomes of isolated E8 Flk-1+ progenitors; format: cell-based, mouse; conditions: high glucose
Description: Isolation of Flk-1+ endothelial progenitor cells. Flk-1^+ progenitor cells were isolated from the E8 yolk sac. Yolk sacs were minced in phosphate-buffered saline PBS (Thermo Fisher Scientific, Waltham, MA), digested with 1 mg/ml of collagenase type I (Sigma, St Louis, MO) and incubated on an orbital shaker at 37° C. for 30-45 min. Following the collagenase treatment, cells were washed twice with growth medium (EBM-2, fetal bovine serum (10%), hFGF-basic (0.5 ml), hydrocortisone (0.2 ml), VEGF (0.5 ml), IGF-1 (0.5 ml), ascorbic acid (0.5 ml), hEGF (0.5 ml), GA-100 (0.5 ml)) before being plated. Cells were trypsinized (Lonza, Walkersville, MD) and sorted for Flk-1 with MACS microbeads (Miltenyi Biotec, Bergisch Gladbach, Germany) as per the kit instructions. The Flk-1^+ progenitor cells were collected and cultured in growth medium as mentioned above.
(§2) Exosome extraction and labelling. Cells and debris were removed from cell culture media via centrifugation at 2000×g for 30 minutes at 4° C. Supernatants containing the cell-free culture media were transferred to a new tube without disturbing the pellet. Total Exosome Isolation (#4478359, Invitrogen, Carlsbad, CA) at 0.5 volume of the collected supernatants was added to each tube. […]

Survivin promoter = experiment: Luciferase reporter activity driven by the Survivin promoter; format: cell-based
Description: as §1

Survivin = Survivin mRNA and protein expression in normal and high glucose culture; format: cell-based; conditions: normal glucose 5 mM / high glucose 25 mM culture
Description: as §1
Real-time PCR (RT-PCR). mRNA was isolated from embryos using the RNeasy Mini kit (Qiagen, Hilden, Germany), and then reversely transcribed using the high-capacity cDNA archive kit (Applied Biosystem, Grand Island, NY). Real time-PCR for Fgf2, Fgfr, Bmp4, Vegfr2, mVegfr1, Calnexin, GRP94, PDIA, BiP, IRE1α, CHOP, Survivin and β-actin were performed using the Maxima SYBR Green/ROX qPCR Master Mix assay (Thermo Fisher Scientific, Waltham, MA) in the Step One Plus system (Applied Biosystem, Grand Island, NY).

yolk sac cell line = experiment: Exosome number and Survivin protein in exosomes of a yolk sac cell line; format: cell-based
Description: as §1
as §2, with “tube. The cell culture media/reagent mixture was mixed well via vortex and pipetting up and down until it became a homogenous solution, and then was incubated at 4° C. overnight.” for “tube.”

## O=C(/C=C/c1ccc(/C=C/C(=O)Nc2ccc(C3=NCCN3)cc2)cc1)Nc1ccc(C2=NCCN2)cc1 [GW4869]
Neuroepithelial cells
  neuroepithelial cell apoptosis: triggered
[1]
  exosome production in the developing embryos: inhibited
[2]
  ER stress in neurulation stage embryos: triggered
[3]
  NTD Embryos: 7
  NTD induction: mimicked the teratogenic effect of maternal diabetes
  NTD rate: 7.29%
[4]
  detection in the embryo: reached the embryo

## O=C(O)C(Cc1c[nH]c2ccccc12)N1C(=O)c2ccccc2C1=O (stereo not drawn) [RG108]
[5]
  Fgf2 promoter-driven luciferase activity: restored

## FGF2: recombinant fibroblast growth factor 2, used at 10 ng/ml
[6]
  Survivin expression in exosomes: abolished this suppression
Survivin promoter
  luciferase reporter activity driven by the Survivin promoter: stimulated
Survivin
  Survivin mRNA and protein expression: normalized
Yolk sac cell line
  Survivin in exosomal cargo: rescued
